Assay results taken from patent US12390440B2, “Immunomodulating trifluoromethyl-aminal azalides” (Zoetis Services LLC, priority 2020, dated 2025).
≈ marks a conversion by molar mass, not a printed value. Entries after “also recorded” stand apart in the source; their conditions may differ.

Assays:
[1] = tested on: bovine respiratory disease (BRD); test: Natural bovine respiratory disease study; type: in vivo, beef calves; conditions: 14-day observation, dosed on arrival to feedlot
Protocol: The primary clinical endpoint for efficacy was treatment failure/success over a 14-day observation period. Clinically normal beef calves (150-200 kg) at moderate risk for BRD were dosed on arrival to the feedlot. Animals (N=114/group) received saline (T01), 5 mg/kg M9 (T02) or 10 mg/kg M9 (T03); or Zactran (T04). […] Bacterial isolates were collected at necropsy and MICs were evaluated (Table 4).

[2] = tested on: M. haemolytica (strain: OSU-012103-BHI); test: Bovine M. haemolytica intratracheal lung challenge model
BRD = test: Separate study, M9 versus saline control: lung lesions and mortality; type: in vivo; conditions: 10 mg/kg
H. somni = test: MIC, H. somni
P. multocida = test: Murine P. multocida intranasal challenge study, survival; type: in vivo; conditions: 32 mg/kg (T03) subcutaneous 18 hours after challenge, 5×10^3 CFU/mouse
Protocol: In one murine P. multocida intranasal challenge study, mice were administered tulathromycin (16 mg/kg; T02), M9 (32 mg/kg; T03), or ceftiofur (9 mg/kg; T04) by subcutaneous injection 18 hours after bacterial challenge (5×10^3 CFU/mouse) for lung tissue RNA sequence analysis. Survival at Day 7 was about 80%, 50%, and 90% for T02, T03, and T04, respectively, compared to placebo at 0%. Differential gene expression from total lung tissue RNA sequence analysis indicated at least 226 unique genes were up or down regulated (with significance) for T03. Output from ingenuity pathway analysis of these unique genes predicted major upstream regulators of the involved pathways. Data was analyzed based on the number of genes being modulated in the same direction that were associated with a given upstream regulator. An activation z-score of 2 or greater is considered significant and the direction change is indicated by + (activated) or − (inhibited). The top 5 pathways included: IL-9 signaling, glucocorticoid receptor signaling, prolactin signaling, JAK STAT signaling, and IL-17 signaling. The top 6 upstream regulators (activation z-score) included: lipopolysaccharide (−6.725), TNF (−4.669), IFNγ (−5.759), IL-1ß (−5.947), STAT1 (−2.787), and poly rI:rC-RNA (−5.289). Even though this study was run in the murine model, the top upstream regulators identified as being modulated by M9 include an almost ubiquitous overlap with the pathways identified in the natural disease study as being key mediators in BRD, and therefore is modulating highly relevant pathways in BRD pathobiology.

TLR4 = target: T1, TLR4 (Bos taurus, UniProt Q9GL65); test: Drug/protein binding partner, SPR: TLR4; set-up: species or system bovine; conditions: PBMCs, Trachea
T1 sequence (Q9GL65 24-841): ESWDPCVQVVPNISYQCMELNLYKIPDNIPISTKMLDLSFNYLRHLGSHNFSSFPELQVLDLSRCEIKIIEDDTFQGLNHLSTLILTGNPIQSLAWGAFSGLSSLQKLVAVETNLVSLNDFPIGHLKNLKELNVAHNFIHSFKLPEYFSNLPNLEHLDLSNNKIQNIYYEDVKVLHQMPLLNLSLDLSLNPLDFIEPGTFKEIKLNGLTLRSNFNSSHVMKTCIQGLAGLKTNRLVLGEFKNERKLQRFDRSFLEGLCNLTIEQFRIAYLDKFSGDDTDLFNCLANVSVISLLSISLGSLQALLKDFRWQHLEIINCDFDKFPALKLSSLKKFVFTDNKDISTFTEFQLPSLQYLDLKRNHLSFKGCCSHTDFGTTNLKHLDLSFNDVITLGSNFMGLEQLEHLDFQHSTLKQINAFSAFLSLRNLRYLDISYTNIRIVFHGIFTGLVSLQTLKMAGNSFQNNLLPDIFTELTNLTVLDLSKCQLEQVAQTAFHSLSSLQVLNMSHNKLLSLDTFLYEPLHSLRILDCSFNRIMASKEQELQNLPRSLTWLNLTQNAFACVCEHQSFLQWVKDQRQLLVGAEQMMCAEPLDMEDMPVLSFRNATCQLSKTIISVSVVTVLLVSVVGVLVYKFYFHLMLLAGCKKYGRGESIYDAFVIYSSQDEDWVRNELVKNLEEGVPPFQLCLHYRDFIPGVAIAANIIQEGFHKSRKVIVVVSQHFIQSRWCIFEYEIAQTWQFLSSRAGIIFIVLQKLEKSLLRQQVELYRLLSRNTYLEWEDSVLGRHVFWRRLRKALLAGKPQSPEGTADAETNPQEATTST
Protocol: (§1) To further characterize the direct activity of the compounds of the invention, experiments to identify the drug's direct binding host partners(s) were performed with the aim of identifying the potential biological targets. Bovine primary cells (peripheral blood mononuclear cells [PBMCs] and polymorphonuclear cells [PMN/neutrophils]) and tissue (trachea, lung) protein homogenates were mixed with M9 and the macrolide, gamithromicin as a comparator. Tissue interactions were allowed to form using a heterogeneous assembly method (nematic protein organization technique, NPOT; Inoviem Scientific); and traditional western blots to identify native-structure proteins bound to the compound. Mass spectrometry analysis identified eight proteins involved in the interaction with M9 as compared to gamithromycin. The antibacterial macrolide gamithromycin was used as a comparator to differentiate specific binding to M9. These proteins were considered to be either direct binding partners of the drug or closely involved in the drug:target interaction (Table 6).
(§2) In order to add further clarity to binding partner identification, surface plasma resonance (SPR) technology was used. […]
(§3) KD is the equilibrium dissociation constant that was used to present the drug/target affinity. The identified targets associated with drug were measured by surface plasmon resonance (SPR) to define the KD.

S. aureus = test: MIC, S. aureus; conditions: Staphylococcus aureus
NLRX1 = NLRX1 (Bos taurus, UniProt A7MB19); test: Drug/protein binding partner, SPR: NLRX1; set-up: species or system bovine; conditions: PBMCs
Sequence of NLRX1 (A7MB19 1-973): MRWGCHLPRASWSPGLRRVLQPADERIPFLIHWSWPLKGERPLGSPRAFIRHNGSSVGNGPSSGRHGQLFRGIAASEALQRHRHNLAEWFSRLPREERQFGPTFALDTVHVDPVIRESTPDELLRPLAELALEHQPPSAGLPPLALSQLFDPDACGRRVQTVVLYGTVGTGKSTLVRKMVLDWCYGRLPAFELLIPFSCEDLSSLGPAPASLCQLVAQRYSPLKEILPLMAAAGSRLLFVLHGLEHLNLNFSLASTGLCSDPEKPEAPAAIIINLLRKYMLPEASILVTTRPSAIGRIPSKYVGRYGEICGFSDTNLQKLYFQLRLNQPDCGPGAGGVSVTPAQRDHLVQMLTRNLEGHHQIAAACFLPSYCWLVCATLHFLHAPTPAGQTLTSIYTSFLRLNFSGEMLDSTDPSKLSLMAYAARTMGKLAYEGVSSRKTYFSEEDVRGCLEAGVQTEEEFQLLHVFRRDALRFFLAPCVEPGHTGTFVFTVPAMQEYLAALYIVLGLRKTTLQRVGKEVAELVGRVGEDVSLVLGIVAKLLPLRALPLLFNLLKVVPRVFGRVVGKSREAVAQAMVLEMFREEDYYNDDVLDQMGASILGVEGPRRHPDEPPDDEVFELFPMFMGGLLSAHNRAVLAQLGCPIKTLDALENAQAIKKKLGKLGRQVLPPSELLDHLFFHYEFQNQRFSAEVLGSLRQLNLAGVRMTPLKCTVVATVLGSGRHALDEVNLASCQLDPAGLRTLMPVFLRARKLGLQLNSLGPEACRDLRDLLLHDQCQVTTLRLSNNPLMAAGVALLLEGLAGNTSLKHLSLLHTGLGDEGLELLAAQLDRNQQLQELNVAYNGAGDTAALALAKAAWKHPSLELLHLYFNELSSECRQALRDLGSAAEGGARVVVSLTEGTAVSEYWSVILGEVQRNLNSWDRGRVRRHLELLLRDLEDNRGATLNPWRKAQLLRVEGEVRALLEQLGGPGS
Protocol: as §1, §2, §3

CCCNC[C@]1(O)[C@H](C)O[C@@H](O[C@H]2[C@H](C)[C@@H](O[C@@H]3O[C@H](C)C[C@H](NC)[C@H]3O)[C@](C)(O)C[C@@H](C)CN[C@H](C)[C@@H](O)[C@](C)(O)[C@@H](CC)OC(=O)[C@@H]2C)C[C@@]1(C)OC [Example M9, (2R,3S,4R,5R,8R,10R,11R,12S,13S,14R)-2-ethyl-3,4,10-trihydroxy-13-(((2R,4R,5S,6S)-5-hydroxy-4-methoxy-4,6-dimethyl-5-((propylamino)methyl)-tetrahydro-2H-pyran-2-yl)oxy)-11-(((2S,3R,4S,6R)-3-hydroxy-6-methyl-4-(methylamino)tetrahydro-2H-pyran-2-yl)oxy)-3,5,8,10,12,14-hexamethyl-1-oxa-6-azacyclopentadecan-15-one]
Percent failure ([1]; 5 mg/kg (T02)): 19.3%
Percent failure ([1]; 10 mg/kg (T03)): 8.8%
Mortality ([2]; T02: 10 mg/kg subcutaneous Day −1, M. haemolytica challenge Day 0): 1/6
Mortality ([2]; T04: 10 mg/kg subcutaneous Day −1, no challenge): 0/6
IL-6 levels ([2]; bovine M. haemolytica challenge): significantly reduced
CD163 expression ([2]; cattle, monocytes/macrophages in whole blood): suppressed; also recorded: mitigates the pathologic increase
lung lesions (BRD; versus saline control 31%, p=0.023): 20%
Mortality (BRD; versus saline control 38.9%, p=0.025): 13%
MIC50 (H. somni): 32 µg/mL (≈ 40.4 µM)
MIC90 (H. somni): 32 µg/mL (≈ 40.4 µM)
Survival at Day 7 (P. multocida): ~50%
Interaction KD (TLR4): Indirect
MIC (S. aureus): 64 µg/mL (≈ 80.8 µM)
Interaction KD (NLRX1): Indirect
